Values of other authors as cited in patent publication US20180027805A1, “ACID HERBICIDE-CONTAINING COMPOSITIONS, PRECURSORS, DERIVATIVES, AND METHODS” (priority 2015, published 2018).

Question: Which pKa does the source give for `CC(Oc1ccc(Oc2ncc(C(F)(F)F)cc2Cl)cc1)C(=O)O` (centres unmarked) [Haloxyfop] here?
Answer: 4.33

Question: Which pKa does the source give for Imazamethbenz here?
Answer: 2.9

Question: Which pKa does the source give for `O=C(O)CCCOc1ccc(Cl)cc1Cl` [2,4-DB] here?
Answer: 4.8

Question: With `CC(C)C1(C)N=C(c2nc3ccccc3cc2C(=O)O)NC1=O` (centres unmarked) [Imazaquin] as the compound, how does the pKa read?
Answer: 3.8

Question: With `N#Cc1cc(Br)c(O)c(Br)c1` [Bromoxynil] as the compound, how does the pKa read?
Answer: 4.06

Question: Which pKa does the source give for `COc1c(Cl)ccc(Cl)c1C(=O)O` [Dicamba, 3,6-dichloro-O-anisic acid] here?
Answer: 1.87

Question: For `O=C(O)c1cc(Oc2ccc(C(F)(F)F)cc2Cl)ccc1[N+](=O)[O-]` [Acifluorfen], which pKa is on record?
Answer: 3.86

Question: Which pKa does the source give for `CC(Oc1ccc(Oc2ccc(Cl)cc2Cl)cc1)C(=O)O` (centres unmarked) [Diclofop] here?
Answer: 3.57

Question: For `Nc1c(Cl)c(Cl)nc(C(=O)O)c1Cl` [Picloram], which pKa is on record?
Answer: 2.3

Question: Which pKa does the source give for `C[C@@H](Oc1ccc(Oc2ccc(C(F)(F)F)cn2)cc1)C(=O)O` [Fluazifop-p] here?
Answer: 2.98

Question: With `O=C(O)COc1nc(Cl)c(Cl)cc1Cl` [Triclopyr, 3,5,6-trichloro-2-pyridyloxyacetic acid] as the compound, how does the pKa read?
Answer: 2.68
